# Laboratory results from patent US8796256B2 (Janssen Pharmaceutica NV, priority 2010, dated 2014).
# Biological target: T1, ERR1 (also known as ERR-α or ERR-1) (Homo sapiens, UniProt P11474)
# T1 sequence (P11474 193-421 limits assumed): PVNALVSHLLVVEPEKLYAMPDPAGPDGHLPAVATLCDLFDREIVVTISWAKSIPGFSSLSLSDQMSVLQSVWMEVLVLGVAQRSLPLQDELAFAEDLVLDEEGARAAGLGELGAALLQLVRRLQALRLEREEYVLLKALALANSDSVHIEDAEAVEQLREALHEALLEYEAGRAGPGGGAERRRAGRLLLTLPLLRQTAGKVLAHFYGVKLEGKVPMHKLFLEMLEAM
# Test: TR-FRET assay (disruption of co-activator peptide binding to ERR1 LBD)
# Type: biochemical
# Conditions: 6 nM 6His-ERR1LBD, 6 nM GST-SRC-2 peptide; average of 3 independent experiments
# Experimental: Time-Resolved Fluorescence Resonance Energy Transfer (TR-FRET) experiments were performed to examine the functional response of ERR1 (also known as ERR-α or ERR-1) ligands. The TR-FRET assay described herein relied on the conformation of ERR1 for binding to a co-activator peptide: when a test compound binds to ERR1 and alters its conformation, it can disrupt the binding of the co-activator peptide. The components of this homogeneous secondary assay included: the ^6His-tagged-ERR1LBD, a GST-labeled-hSRC2 co-activator polypeptide and a fluorescent donor/acceptor pair from CIS bio international htrf/bioassays (Bedford, Mass.) using both an α-GST Europium (Eu) Cryptate label and an α^6His-XL665 (allophycocyanin) fluorophore.
# For TR-FRET measurements, the reaction was buffered in 25 mM Tris pH 8, 2.5 mM Hepes, 20 mM KCl, 1 mM DTT, and 0.05 mg/mL BSA (delipidated). The final concentrations of reagents were 6 nM of ERR1LBD, 6 nM GST-SRC-2 peptide, 30 nM Eu cryptate, and 7.5 nM a^6His-XL665. Reactions were allowed to reach equilibrium at 25° C. for 4-18 h before collecting data on the Analyst from LJL Biosystems (Molecular Devices Sunnyvale, Calif.). […] Dose response curves were fitted using a hyperbolic equation and the data reported is the average of 3 independent experiments.
row,Structure (SMILES),EC50 [µM]
1,"O=C1S/C(=C\c2ccc3c(cnn3Cc3ccc(Cl)cc3C(F)(F)F)c2)C(=O)N1CCN1CCOCC1 [Compound 3, (5Z)-5-({1-[4-Chloro-2-(trifluoromethyl)benzyl]-1H-indazol-5-yl}methylidene)-3-(2-morpholin-4-ylethyl)-1,3-thiazolidine-2,4-dione]",0.043
2,"CN(C)CCN1C(=O)S/C(=C\c2ccc3c(cnn3Cc3ccc(F)cc3C(F)(F)F)c2)C1=O [Compound 5, (5Z)-3-[2-(Dimethylamino)ethyl]-5-[(1-{[4-fluoro-2-(trifluoromethyl)phenyl]methyl}-1H-indazol-5-yl)methylidene]-1,3-thiazolidine-2,4-dione]",0.18
3,"CN(C)CCCN1C(=O)S/C(=C\c2ccc3c(cnn3Cc3ccc(C(F)(F)F)cc3C(F)(F)F)c2)C1=O [Compound 6, (5Z)-5-[(1-{[2,4-Bis(trifluoromethyl)-phenyl]methyl}-1H-indazol-5-yl)methylidene]-3-[3-(dimethylamino)-propyl]-1,3-thiazolidine-2,4-dione]",0.035
4,"CN(C)CCN1C(=O)S/C(=C\c2ccc3c(cnn3Cc3ccc(C(F)(F)F)cc3C(F)(F)F)c2)C1=O [Compound 7, (5Z)-5-[(1-{[2,4-Bis(trifluoromethyl)-phenyl]methyl}-1 H-indazol-5-yl)methylidene]-3-[2-(dimethylamino)-ethyl]-1,3-thiazolidine-2,4-dione]",0.033
5,"COc1ccc(Cn2ncc3cc(/C=C4\SC(=O)N(CCN(C)C)C4=O)ccc32)c(C(F)(F)F)c1 [Compound 9, (5Z)-3-[2-(Dimethylamino)ethyl]-5-[(1-{[4-(methyloxy)-2-(trifluoromethyl)phenyl]-methyl}-1H-indazol-5-yl)methylidene]-1,3-thiazolidine-2,4-dione]",0.004
6,"COc1ccc(Cn2ncc3cc(/C=C4\SC(=O)N(CCCN(C)C)C4=O)ccc32)c(C(F)(F)F)c1 [Compound 10, (5Z)-3-[3-(Dimethylamino)propyl]-5-[(1-{[4-(methyloxy)-2-(trifluoromethyl)phenyl]-methyl}-1H-indazol-5-yl)methylidene]-1,3-thiazolidine-2,4-dione]",0.008
7,"COc1ccc(Cn2ncc3cc(/C=C4\SC(=O)N(CCN5CCN(C)CC5)C4=O)ccc32)c(C(F)(F)F)c1 [Compound 12, (5Z)-5-[(1-{[4-(Methyloxy)-2-(trifluoromethyl)phenyl]methyl}-1H-indazol-5-yl)methylidene]-3-[2-(4-methylpiperazin-1-yl)ethyl]-1,3-thiazolidine-2,4-dione]",0.072
8,"COc1ccc(Cn2ncc3cc(/C=C4\SC(=O)N(CCN5CCC(O)CC5)C4=O)ccc32)c(C(F)(F)F)c1 [Compound 15, (5Z)-3-[2-(4-Hydroxypiperidin-1-yl)ethyl]-5-({1-[4-methoxy-2-(trifluoromethyl)benzyl]-1H-indazol-5-yl}methylidene)-1,3-thiazolidine-2,4-dione]",0.062
9,"COc1ccc(Cn2ncc3cc(/C=C4\SC(=O)N(CCN5CCN(CCO)CC5)C4=O)ccc32)c(C(F)(F)F)c1 [Compound 16, (5Z)-3-{2-[4-(2-Hydroxyethyl)piperazin-1-yl]ethyl}-5-({1-[4-methoxy-2-(trifluoromethyl)benzyl]-1H-indazol-5-yl)methylidene)-1,3-thiazolidine-2,4-dione]",0.071
10,"CCN(CC)CCN1C(=O)S/C(=C\c2ccc3c(cnn3Cc3ccc(OC)cc3C(F)(F)F)c2)C1=O [Compound 18, (5Z)-3-[2-(Diethylamino)ethyl]-5-({1-[4-methoxy-2-(trifluoromethyl)benzyl]-1H-indazol-5-yl}methylidene)-1,3-thiazolidine-2,4-dione]",0.02
11,"COc1ccc(Cn2nc(C)c3cc(/C=C4\SC(=O)N(CCN5CCOCC5)C4=O)ccc32)c(C(F)(F)F)c1 [Compound 20, (5Z)-5-({1-[4-Methoxy-2-(trifluoromethyl)benzyl]-3-methyl-1H-indazol-5-yl}methylidene)-3-(2-morpholin-4-ylethyl)-1,3-thiazolidine-2,4-dione]",0.014
12,"COc1ccc(Cn2ncc3cc(/C=C4\SC(=O)N(CCN5C[C@@H](C)O[C@@H](C)C5)C4=O)ccc32)c(C(F)(F)F)c1 [Compound 21, (5Z)-3-{2-[cis-2,6-Dimethylmorpholin-4-yl]ethyl}-5-({1-[4-methoxy-2-(trifluoromethyl)benzyl]-1H-indazol-5-yl)methylidene)-1,3-thiazolidine-2,4-dione]",0.009
13,"COc1ccc(Cn2ncc3cc(/C=C4\SC(=O)N(C[C@@H]5CCCN5C)C4=O)ccc32)c(C(F)(F)F)c1 [Compound 23, (5Z)-5-({1-[4-Methoxy-2-(trifluoromethyl)benzyl]-1H-indazol-5-yl}methylidene)-3-{[(2S)-1-methylpyrrolidin-2-yl]methyl}-1,3-thiazolidine-2,4-dione]",0.045
14,"COc1ccc(Cn2ncc3cc(/C=C4\SC(=O)N(C5CCNCC5)C4=O)ccc32)c(C(F)(F)F)c1 [Compound 26, (5Z)-5-({1-[4-Methoxy-2-(trifluoromethyl)benzyl]-1H-indazol-5-yl}methylidene)-3-piperidin-4-yl-1,3-thiazolidine-2,4-dione]",0.067
15,"CCN1CCC(N2C(=O)S/C(=C\c3ccc4c(c3)c(OC)nn4Cc3ccc(Cl)cc3C(F)(F)F)C2=O)CC1 [Compound 30, (5Z)-5-({1-[4-Chloro-2-(trifluoromethyl)benzyl]-3-methoxy-1H-indazol-5-yl}methylidene)-3-(1-ethylpiperidin-4-yl)-1,3-thiazolidine-2,4-dione]",0.096
16,"COc1ccc(Cn2ncc3cc(/C=C4\SC(=O)N(C5CCN(S(N)(=O)=O)CC5)C4=O)ccc32)c(C(F)(F)F)c1 [Compound 32, 4-[(5Z)-5-({1-[4-Methoxy-2-(trifluoromethyl)benzyl]-1H-indazol-5-yl}methylidene)-2,4-dioxo-1,3-thiazolidin-3-yl]piperidine-1-sulfonamide]",0.015

# The remaining lines, values ahead:
row,EC50 [µM],Structure (SMILES)
1,0.027,"COc1ccc(Cn2ncc3cc(/C=C4\SC(=O)N(CCN5CCCCC5)C4=O)ccc32)c(C(F)(F)F)c1 [Compound 11, (5Z)-5-[(1-{[4-(Methyloxy)-2-(trifluoromethyl)phenyl]methyl}-1H-indazol-5-yl)methylidene]-3-(2-piperidin-1-ylethyl)-1,3-thiazolidine-2,4-dione]"
2,0.043,"COc1ccc(Cn2ncc3cc(/C=C4\SC(=O)N(CCN5CC[C@@H](F)C5)C4=O)ccc32)c(C(F)(F)F)c1 [Compound 13, (5Z)-3-{2-[(3R)-3-Fluoropyrrolidin-1-yl]ethyl}-5-[(1-{[4-(methyloxy)-2-(trifluoromethyl)phenyl]methyl}-1H-indazol-5-yl)methylidene]-1,3-thiazolidine-2,4-dione]"
3,0.1,"COc1ccc(Cn2ncc3cc(/C=C4\SC(=O)N(CCN5CC[C@H](O)C5)C4=O)ccc32)c(C(F)(F)F)c1 [Compound 14, (5Z)-3-{2-[(3S)-3-Hydroxypyrrolidin-1-yl]ethyl}-5-({1-[4-methoxy-2-(trifluoromethyl)benzyl]-1H-indazol-5-yl}methylidene)-1,3-thiazolidine-2,4-dione]"
4,0.046,"COc1ccc(Cn2ncc3cc(/C=C4\SC(=O)N(CCN5CCCC5)C4=O)ccc32)c(C(F)(F)F)c1 [Compound 17, (5Z)-5-({1-[4-Methoxy-2-(trifluoromethyl)benzyl]-1H-indazol-5-yl}methylidene)-3-(2-pyrrolidin-1-ylethyl)-1,3-thiazolidine-2,4-dione]"
5,0.012,"COc1ccc(Cn2ncc3cc(/C=C4\SC(=O)N(C5CCC(C(=O)NS(C)(=O)=O)CC5)C4=O)ccc32)c(C(F)(F)F)c1 (stereo not drawn) [Compound 24, 4-[(5Z)-5-({1-[4-Methoxy-2-(trifluoromethyl)benzyl]-1H-indazol-5-yl}methylidene)-2,4-dioxo-1,3-thiazolidin-3-yl]-N-(methylsulfonyl) cyclohexanecarboxamide]"
6,0.016,"COc1ccc(Cn2nc(OC)c3cc(/C=C4\SC(=O)N(CCN5CCOCC5)C4=O)ccc32)c(C(F)(F)F)c1 [Compound 25, (5Z)-5-({3-Methoxy-1-[4-methoxy-2-(trifluoromethyl)benzyl]-1H-indazol-5-yl}methylidene)-3-(2-morpholin-4-ylethyl)-1,3-thiazolidine-2,4-dione]"
7,0.014,"CCN1CCC(N2C(=O)S/C(=C\c3ccc4c(cnn4Cc4ccc(OC)cc4C(F)(F)F)c3)C2=O)CC1 [Compound 28, (5Z)-3-(1-Ethylpiperidin-4-yl)-5-({1-[4-methoxy-2-(trifluoromethyl)benzyl]-1H-indazol-5-yl}methylidene)-1,3-thiazolidine-2,4-dione]"
8,0.095,"COc1nn(Cc2ccc(Cl)cc2C(F)(F)F)c2ccc(/C=C3\SC(=O)N(C4CCNCC4)C3=O)cc12 [Compound 29, (5Z)-5-({1-[4-Chloro-2-(trifluoromethyl)benzyl]-3-methoxy-1H-indazol-5-yl}methylidene)-3-piperidin-4-yl-1,3-thiazolidine-2,4-dione]"
